The values below come from patent US10654848B1, “Neutrophil inflammation inhibitor and uses thereof” (Chang Gung University of Science and Technology, priority 2018, dated 2020).

Each structure is given as a SMILES string. Counter-ions that a name gives are not always drawn.

Broadly, the melting point is the temperature, or range, at which the solid turns liquid.

One data set has as its system human neutrophils. Briefly: Superoxide anion (O2•−) generation in fMLF/CB-activated human neutrophils (SOD-inhibitable ferricytochrome c reduction). The note with it: at 10 μM concentration; FMLP/CB-induced human neutrophils; mean ± S.E.M. (n = 3-5). It is filed as cell-based. On the procedure: Human neutrophils were obtained in lipopolysaccharide-free conditions by means of dextran sedimentation and Ficoll centrifugation.
O2^•− production was determined based on the SOD-inhibitable reduction of ferricytochrome c. Briefly, neutrophils (6×10^5/mL) were treated with a candidate compound at 37° C. at various concentrations (0.001 to 10 μM) for 5 min after being supplementing with 0.5 mg/mL ferricytochrome c and 1 mM Ca^2+. Cells were then activated with fMLF (0.1 μM) for 10 min in the pre-process of cytochalasin B (CB, 1 μg/mL) for 3 min. Changes in absorbance with the reduction of ferricytochrome c at 550 nm were continuously monitored in a double-beam, six-cell positioner spectrophotometer with constant stirring (Hitachi U-3010, Tokyo, Japan). Calculations were based on the differences in the reactions with and without SOD (100 U ml^−1) divided by the extinction coefficient for the reduction of ferricytochrome c (E=21.1 mM^−1/10 mm).
For `CSc1ccc(Nc2nc3ccccc3c3onc(N)c23)cc1` [Compound 25, 4-(4-Methylthioanilino)isoxazolo[4,5-c]quinolin-3-amine], the “Superoxide Anion Inhibition %” value is on record as “enhanced”.
Still for that read-out and setting: with `Nc1noc2c1c(Nc1ccc(C(F)(F)F)cc1)nc1ccccc12` [Compound 30, 4-(4-Trifluoromethylanilino)isoxazolo[4,5-c]quinolin-3-amine] the entry was “enhanced”; with `Cc1ccc(Nc2nc3ccccc3c3onc(N)c23)cc1` [Compound 33, 4-(4-Methylanilino)isoxazolo[4,5-c]quinolin-3-amine], “enhanced”.

Test system in a further data set: not given
Experiment: not given
Conditions: not given
With `Cc1ccc(Nc2nc3ccccc3c3c2c(N)nn3C)cc1` (as salt: salt) [Compound 18, 4-(4-Methylanilino)-1-methyl-1H-pyrazolo[4,3-c]quinolin-3-amine], the melting point lay in the range of 253 to 255 °C.
`Cn1nc(N)c2c(Nc3ccc(O)cc3)nc3ccccc3c21` (as salt: salt) [Compound 13, 4-(4-Hydroxyanilino)-1-methyl-1H-pyrazolo[4,3-c]quinolin-3-amine] returned a melting point of 320 to 322 °C.
Still for that read-out and setting: with `Cc1ccc(Nc2nc3ccccc3c3onc(N)c23)cc1` (as salt: salt) [Compound 33, 4-(4-Methylanilino)isoxazolo[4,5-c]quinolin-3-amine] the figure was 173 to 175 °C; with `Cn1nc(N)c2c(Nc3ccc(F)cc3)nc3ccccc3c21` (as salt: salt) [Compound 4, 4-(4-Fluoroanilino)-1-methyl-1H-pyrazolo[4,3-c]quinolin-3-amine], 218 to 219 °C; with `Cn1nc(N)c2c(Nc3ccc(C(=O)O)cc3)nc3ccccc3c21` (as salt: salt) [Compound 15, 4-[(3-Amino-1-methyl-1H-pyrazolo[4,3-c]quinolin-4-yl)amino]benzoic acid], 325 to 326 °C.
For the compound `Nc1noc2c1c(Nc1ccccc1)nc1ccccc12` (as salt: salt) [Compound 19, 4-Anilinoisoxazolo[4,5-c]quinolin-3-amine], the melting point fell in the range of 266 to 267 °C.
On the same count and under the same terms, to `COc1ccc(Nc2nc3ccccc3c3onc(N)c23)cc1` (as salt: salt) [Compound 23, 4-(4-Methoxyanilino)isoxazolo[4,5-c]quinolin-3-amine] belongs 257 to 259 °C; to `Cn1nc(N)c2c(Nc3ccc(Cl)cc3)nc3ccccc3c21` (as salt: salt) [Compound 17, 4-(4-Chloroanilino)-1-methyl-1H-pyrazolo[4,3-c]quinolin-3-amine], 281 to 282 °C.
On to `COc1cccc(Nc2nc3ccccc3c3onc(N)c23)c1` (as salt: salt) [Compound 22, 4-(3-Methoxyanilino)isoxazolo[4,5-c]quinolin-3-amine], for which the melting point lay in the range of 262 to 263 °C.
`COc1cc(Nc2nc3ccccc3c3onc(N)c23)cc(OC)c1OC` (as salt: salt) [Compound 24, 4-(3,4,5-Trimethoxyanilino)isoxazolo[4,5-c]quinolin-3-amine] showed a melting point of 264 to 266 °C.
The same measure, in the same setting: with `Nc1noc2c1c(Nc1ccc(O)cc1)nc1ccccc12` (as salt: salt) [Compound 29, 4-(4-Hydroxyanilino)isoxazolo[4,5-c]quinolin-3-amine] the figure was 236 to 237 °C.
Still for that read-out and setting: to `Cn1nc(N)c2c(Nc3ccccc3S)nc3ccccc3c21` (as salt: salt) [Compound 16, 2-[(3-amino-1-methyl-1H-pyrazolo[4,3-c]quinolin-4-yl)amino]benzenethiol] belongs 235 to 236 °C.
Same read-out and setting: to `CC(=O)c1cccc(Nc2nc3ccccc3c3onc(N)c23)c1` (as salt: salt) [Compound 26, 4-(3-Acetoylanilino)isoxazolo[4,5-c]quinolin-3-amine] belongs 249 to 250 °C.
For the compound `CC(=O)c1ccc(Nc2nc3ccccc3c3c2c(N)nn3C)cc1` [Compound 10, 4-(4-Acetoylanilino)-1-methyl-1H-pyrazolo[4,3-c]quinolin-3-amine], the melting point fell in the range of 272 to 274 °C.
Same read-out and setting: with `Nc1noc2c1c(Nc1ccc(Cl)cc1)nc1ccccc12` (as salt: salt) [Compound 32, 4-(4-Chloroanilino)isoxazolo[4,5-c]quinolin-3-amine] the figure was 268 to 269 °C.
On the same count and under the same terms, to `Cn1nc(N)c2c(Nc3cccc(O)c3)nc3ccccc3c21` (as salt: salt) [Compound 12, 4-(3-Hydroxyanilino)-1-methyl-1H-pyrazolo[4,3-c]quinolin-3-amine] belongs 190 to 191 °C; to `COc1cccc(Nc2nc3ccccc3c3c2c(N)nn3C)c1` (as salt: salt) [Compound 6, 4-(3-Methoxyanilino)-1-methyl-1H-pyrazolo[4,3-c]quinolin-3-amine], 284 to 286 °C; to `Nc1noc2c1c(Nc1ccccc1O)nc1ccccc12` (as salt: salt) [Compound 28, 4-(2-Hydroxyanilino)isoxazolo[4,5-c]quinolin-3-amine], 240 to 241 °C.
With `COc1ccc(Nc2nc3ccccc3c3c2c(N)nn3C)cc1` (as salt: salt) [Compound 7, 4-(4-Methoxyanilino)-1-methyl-1H-pyrazolo[4,3-c]quinolin-3-amine], the melting point lay in the range of 193 to 194 °C.
The same measure, in the same setting: with `Cn1nc(N)c2c(Nc3ccccc3O)nc3ccccc3c21` (as salt: salt) [Compound 11, 4-(2-Hydroxyanilino)-1-methyl-1H-pyrazolo[4,3-c]quinolin-3-amine] the figure was 233 to 235 °C; with `Nc1noc2c1c(Nc1ccc(C(=O)O)cc1)nc1ccccc12` (as salt: salt) [Compound 31, 4-[(3-aminoisoxazolo[4,5-c]quinolin-4-yl)amino]benzoic acid], 308 to 310 °C; with `COc1cc(Nc2nc3ccccc3c3c2c(N)nn3C)cc(OC)c1OC` (as salt: salt) [Compound 8, 4-(3,4,5-Trimethoxyanilino)-1-methyl-1H-pyrazolo[4,3-c]quinolin-3-amine], 219 to 220 °C.
As to `CSc1ccc(Nc2nc3ccccc3c3c2c(N)nn3C)cc1` (as salt: salt) [Compound 9, 1-Methyl-4-(4-methylthioanilino)-1H-pyrazolo[4,3-c]quinolin-3-amine], the melting point was in the range of 233 to 235 °C.
Same read-out and setting: to `COc1ccccc1Nc1nc2ccccc2c2onc(N)c12` (as salt: salt) [Compound 21, 4-(2-Methoxyanilino)isoxazolo[4,5-c]quinolin-3-amine] belongs 261 to 262 °C.
`CC(=O)c1ccc(Nc2nc3ccccc3c3onc(N)c23)cc1` (as salt: salt) [Compound 27, 4-(4-Acetoylanilino)isoxazolo[4,5-c]quinolin-3-amine] registered a melting point of 255 to 257 °C.
For the compound `Cn1nc(N)c2c(Nc3ccc(C(F)(F)F)cc3)nc3ccccc3c21` (as salt: salt) [Compound 14, 4-(4-Trifluoromethylanilino)-1-methyl-1H-pyrazolo[4,3-c]quinolin-3-amine], the melting point fell in the range of 219 to 220 °C.
On the same count and under the same terms, with `Nc1noc2c1c(Nc1ccc(F)cc1)nc1ccccc12` (as salt: salt) [Compound 20, 4-(4-Fluoroanilino)isoxazolo[4,5-c]quinolin-3-amine] the figure was 271 to 272 °C; with `CSc1ccc(Nc2nc3ccccc3c3onc(N)c23)cc1` (as salt: salt) [Compound 25, 4-(4-Methylthioanilino)isoxazolo[4,5-c]quinolin-3-amine], 246 to 247 °C.
The same measure, in the same setting: with `Nc1noc2c1c(Nc1ccc(C(F)(F)F)cc1)nc1ccccc12` (as salt: salt) [Compound 30, 4-(4-Trifluoromethylanilino)isoxazolo[4,5-c]quinolin-3-amine] the figure was 227 to 229 °C; with `COc1ccccc1Nc1nc2ccccc2c2c1c(N)nn2C` [Compound 5, 4-(2-Methoxyanilino)-1-methyl-1H-pyrazolo[4,3-c]quinolin-3-amine], 229 to 230 °C.
